Assay results reported in patent US8802711B2, “TRPV1 antagonists” (AbbVie Inc., priority 2011, dated 2014).

Experiments:
Sprague-Dawley rats [1] = assay: Rat tail immersion assay (noxious thermosensation); assay type: in vivo; details: rat, 100 μmol/kg oral, one hour post dosing, 55° C. water bath, relative to vehicle
Experimental: (§1) Adult male Sprague-Dawley rats (250-300 g body weight, Charles River Laboratories, Portage, Mich.) were used. Animal handling and experimental protocols were approved by the Institutional Animal Care and Use Committee (IACUC) at Abbott Laboratories. For all surgical procedures, animals were maintained under isoflurane anesthesia (4-5% to induce, 1-3% to maintain), and the incision sites were sterilized using a 10% povidone-iodine solution prior to and after surgeries.
Compounds were tested for their effects on noxious thermosensation using the tail immersion assay. Testing was performed one hour following oral administration of 100 μmol/kg of the compound in 10% ethanol/20% Tween-80/70% PEG-400 (2 mL/kg). Morphine (6 mg/kg) was administered interperitoneally (i.p.) using saline (2 mL/kg) as the vehicle. For testing, a circulating water bath was heated to 55° C. Thirty to sixty minutes post dosing, the rats were handled for a few seconds to calm them down and then cupped with their back against the tester's hand at a slight angle with head facing away from the tester. With rat in one hand and a 0.01 second stopwatch in the other hand, the tail was quickly immersed 6-8 cm in the water bath or to a distance leaving 2-3 cm of tail out of water. The timer was started simultaneously. When the rat flinched or attempted withdrawal, timer was immediately stopped and the rat's tail was quickly removed from water bath. This response latency (in seconds) was recorded. Process was repeated 3 times with 3-4 minutes between readings and the average response latency was calculated.
For a given example, a percent increase in the average response latency (in seconds) for tail withdrawal relative to a vehicle control was determined. % increase=[(tc−tv)/tv]×100%
tc=response latency (in seconds) with oral dosing of compounds
tv=response latency (in seconds) with oral dosing of vehicle
The % increases in tail withdrawal latency relative to vehicle control are divided into the following categories: […]

Sprague-Dawley rats [2] = assay: Rat acute capsaicin-induced flinching behavior; assay type: in vivo; details: percent reduction in number of flinching behaviors
Description: as §1
Rats were placed in individual observation cages. […] One hour after administration of the test compound, 2.5 μg of capsaicin in a 10 μL solution of 10% ethanol/90% hydroxypropyl-β-cyclodextrin was injected subcutaneously into the dorsal aspect of the right hind paw. The observation cage was then suspended above mirrors in order to facilitate observation. […] The number of flinching behaviors of the injured paw was recorded during the five minute observation period (Gilchrist, H. D.; Allard, B. L.; Simone, D. A.; Enhanced withdrawal responses to heat and mechanical stimuli following intraplantar injection of capsaicin in rats. Pain, 1996, 67, 179-188). The percent reduction in the number of flinching behaviors produced with oral administration of representative compounds of the present invention relative to control-treated animals (% effect) is reported in Table 3.

Sprague-Dawley rats [3] = assay: Capsaicin-induced secondary mechanical hypersensitivity; assay type: in vivo, rat
Description: as §1
Rats were allowed to acclimate to the study room for 1 hour. They were then briefly restrained, and capsaicin was administered at 10 μg in 10 μL of vehicle (10% ethanol and 2-hydroxypropyl cyclodextrin) by intraplantar injection into the center of the right hind paw. Secondary mechanical hyperalgesia was measured at the heel away from the site of injection at 180 minutes following the administration of capsaicin (Joshi et al 2006, Neuroscience 143, 587-596). Compounds were administered orally (p.o.) one hour before testing ([…]).
Tactile allodynia was measured using calibrated von Frey filaments (Stoelting, Wood Dale, Ill.) as described in Chaplan, S. R., F. W. Bach, J. M. Pogrel, J. M. Chung and T. L. Yaksh, Quantitative assessment of tactile allodynia in the rat paw, J. Neurosci. Methods, 1994, 53, 55. Rats were placed into inverted individual plastic containers (20×12.5×20 cm) on top of a suspended wire mesh grid, and acclimated to the test chambers for 20 minutes. The von Frey filaments with different bending forces (starting with the lowest first and then progressively increasing) were presented perpendicularly to the plantar surface of the selected hind paw, and then hold in this position for approximately 8 sec with enough force to cause a slight bend in the filament. Positive responses included an abrupt withdrawal of the hind paw from the stimulus, or flinching behavior immediately following removal of the stimulus.

Sprague-Dawley rats [4] = assay: Sodium iodoacetate-induced knee joint osteoarthritic pain model; assay type: in vivo, rat; details: 1 hour after dosing, % return to normalcy of hind limb grip force
Description: as §1
Unilateral knee joint osteoarthritis was induced in the rats by a single intra-articular (i.a.) injection of sodium iodoacetate (3 mg in 0.05 mL sterile isotonic saline) into the right knee joint cavity under light isoflurane anesthesia using a 26 G needle. […] Pain behavioral assessment of hind limb grip force was conducted by recording the maximum compressive force exerted on the hind limb strain gauge setup, in a commercially available grip force measurement system (Columbus Instruments, Columbus, Ohio), to elicit paw withdrawal. The grip force data was converted to a maximum hindlimb cumulative compressive force (CFmax) (gram force)/kg body weight for each animal. The analgesic effects of test compounds were determined 20 days following the i.a. injection of sodium iodoacetate. The vehicle control group for each compound being tested was assigned 0% whereas the age matched naïve group was assigned as being 100% (normal). The % effect for each dose group was then expressed as % return to normalcy compared to the naïve group. Test compounds were administered orally in 10% ethanol/20% Tween 80/70% polyethylene glycol-400 vehicle at a volume of 2 mL/kg. The assessment of the analgesic effects of test compounds was made 1 hour following oral administration. The assessment of the analgesic effects of test compounds can be made following a single dose or following repeated administration wherein the frequency of dosing is 1 to 2 times daily. The duration of such repeated daily dosing may last for any time greater than one day. A typical duration of repeated daily dosing is about 5 days to about 12 days.

Row | SMILES | % Increase in tail withdrawal latency (Sprague-Dawley rats [1]) | % effect (Sprague-Dawley rats [2]; 10 μmol/kg p.o.) [%] | % effect (Sprague-Dawley rats [3]; 100 μmol/kg p.o.) [%] | % effect (Sprague-Dawley rats [4]; 100 μmol/kg p.o.) [%] | change in vivo at 100 µmol/kg (Sprague-Dawley rats [1]; 1 h, read-out: % Increase in tail withdrawal latency) [%] | % effect (Sprague-Dawley rats [4]; 10 mg/kg p.o.) [%] | % effect (Sprague-Dawley rats [2]; 100 μmol/kg p.o.) [%] | % effect (Sprague-Dawley rats [3]; 10 μmol/kg p.o.) [%]
1 | O=C(Nc1cccc2[nH]ncc12)N[C@H]1CC[C@@H](c2ccccc2)C1 [Example 28, 1-(1H-indazol-4-yl)-3-[(1S,3R)-3-phenylcyclopentyl]urea] | − | 60 | 81 | 78 |  |  |  | 
2 | O=C(Nc1cccc2[nH]ncc12)N[C@H]1CC[C@H](c2ccccc2)C1 [Example 14, 1-(1H-indazol-4-yl)-3-[(1S,3S)-3-phenylcyclopentyl]urea] | − | 76 | 48 |  |  |  |  | 
3 | O=C(Nc1cccc2[nH]ncc12)N[C@@H]1CC[C@@H](c2ccccc2)C1 [Example 21, 1-(1H-indazol-4-yl)-3-[(1R,3R)-3-phenylcyclopentyl]urea] |  |  |  |  | 10 to 25 | 37 |  | 
4 | Cn1ncc2c(NC(=O)N[C@@H]3CC[C@H](c4ccccc4)C3)cccc21 [Example 4, 1-(1-methyl-1H-indazol-4-yl)-3-[(1R,3S)-3-phenylcyclopentyl]urea] | − |  |  |  |  | 50 |  | 
5 | Cc1cc2c(NC(=O)N[C@@H]3CC[C@H](c4ccccc4)C3)c(F)ccc2cn1 [Example 6, 1-(6-fluoro-3-methylisoquinolin-5-yl)-3-[(1R,3S)-3-phenylcyclopentyl]urea] | − |  |  |  |  |  | 88 | 59
